Converted amounts (≈) assume the structure as drawn. Where two headings read alike, the source gives them in different places. Bridge positions count the residues as written; N and C are the ends. Square brackets hold non-standard residues; d marks the D form. Peptide text beside a SMILES is read from it. βAla = NCCC(=O)O
Legend:
Format in all cases: cell-based
[1] = tested on: WI-38 human fibroblast cells; assay: SYTOX Green cytotoxicity assay
Protocol: Peptide variants of D-CONGA (SEQ ID NO: 1) were tested for activity against E. coli, K. pneumoniae, and S. aureus. Minimum Inhibitory Concentrations (MIC) were measured in 96-well plates by broth dilution. […] Following 1 hr. incubation, bacteria in growth media were added and the plates were incubated overnight at 37° C. Sterilized, wells were identified to determine MIC. […] The value for 100% hemolysis was established by treatment with the detergent Triton-X100. Toxicity was measured by incubating serially diluted peptide with WI38 human fibroblast cells in the presence of SYTOX Green, a DNA binding dye that reports on cell death by membrane permeabilization. The peptide concentration that gives 50% cytotoxicity by relative SYTOX Green fluorescence, is denoted EC50. WI-38 cells were grown to confluency in T-75 flasks in complete DMEM (with 15% FBS, plus antibiotics and non-essential amino acids). The day prior to cytotoxicity experiments, cells were trypsinized, removed from the flask, and pelleted. Cells were resuspended in complete DMEM and the cell count was obtained using a cell counter. The cells were then seeded at a density of 10,000 cells/well in a 96-well tissue-culture plate. […] To perform the cytotoxicity assay, media from wells of overnight cell culture plate was removed, washed once with PBS and treated with 50 μl of the peptide and SYTOX™ Green mixture. The plate was read for fluorescence, every 5 minutes, for an hour at the excitation wavelength of 385 nm and emission wavelength of 530 nm. MelP5, a potent MPP, that causes 100% SYTOX™ Green entry into the cells was used as a positive control to normalize the cytotoxicity of peptides tested. MIC values were reported in μM peptide against gram-negative E. coli (EC), P. aeruginosa (PA), and gram-positive S. aureus (SA). […] The column marked “EC 50” contains the concentration of peptide that kills 50% of WI-38 human fibroblast cells assayed by entry of SYTOX™ Green DNA binding dye.

E. coli = conditions: for MIC in Broth Dilution, E. coli, RBC −: absence of RBC; for MIC in Broth Dilution, E. coli, RBC − / MIC in Broth Dilution, E. coli, RBC +: Table 3; for MIC, E. coli, No RBC / MIC, E. coli, 10^9 cells/ml RBC: Table 2; for MIC in Broth Dilution, E. coli, RBC +: presence of 1×10^9 human RBC/ml; for MIC, E. coli, 10^9 cells/ml RBC: with 10^9 human RBC/ml
Protocol: (§1) Peptide variants of D-CONGA (SEQ ID NO: 1) were tested for activity against E. coli, K. pneumoniae, and S. aureus. Minimum Inhibitory Concentrations (MIC) were measured in 96-well plates by broth dilution. Peptides were serially diluted in buffer or in buffer containing 1×10^9 human RBC/ml. Following 1 hr. incubation, bacteria in growth media were added and the plates were incubated overnight at 37° C. Sterilized, wells were identified to determine MIC. Hemolysis was measured by incubating 1×10^8 human RBCs with serially diluted peptide for 30 minutes followed by centrifugation of the cells and measurements of the released hemoglobin in the supernatant by absorbance at 410 nm. The value for 100% hemolysis was established by treatment with the detergent Triton-X100. Toxicity was measured by incubating serially diluted peptide with WI38 human fibroblast cells in the presence of SYTOX Green, a DNA binding dye that reports on cell death by membrane permeabilization. The peptide concentration that gives 50% cytotoxicity by relative SYTOX Green fluorescence, is denoted EC50.
(§2) Antimicrobial peptides and conventional antibiotics were prepared at 5-times the final concentration needed in 0.025% acetic acid. The antibiotics were serially diluted by a factor of 2:3 horizontally across 96-well plates from Corning, 25 μL per well. One column was reserved for controls. For the assays performed in the presence of RBC, type O+ human RBCs at 0 or 2.5×10^9 cells/mL were added in 50 μL aliquots to all wells. Following a 30-minute incubation, 50 μL of TSB, inoculated with 5×10^5 CFU/mL, was added to all wells, and plates were incubated overnight at 37° C. Following overnight incubation at 37° C., the OD600 was measured (values of less than 0.1 were considered sterilized). To assess bacterial growth in the assays with RBC, the OD600 was measured after a second day inoculation with 10 μL of solution from the original plate added to 100 μL of sterile TSB followed by overnight incubation.
(§3) MIC values were reported in μM peptide against gram-negative E. coli (EC), P. aeruginosa (PA), and gram-positive S. aureus (SA). The two columns under each organism are for assays performed in the absence (−) and presence (+) of 1×10^9 human RBC/ml. “>30” means that sterilization was not observed at 30 μM, the highest concentration tested. The column marked “hemolysis” is the fractional hemolysis of 1×10^8 human RBC/ml at 100 μM peptide determined from measurements of serially diluted peptide, starting from 100 μM. The column marked “EC 50” contains the concentration of peptide that kills 50% of WI-38 human fibroblast cells assayed by entry of SYTOX™ Green DNA binding dye.

S. aureus = conditions: for MIC in Broth Dilution, S. Aureus, RBC −: absence of RBC; for MIC in Broth Dilution, S. Aureus, RBC − / MIC in Broth Dilution, S. Aureus, RBC +: Table 3; for MIC, S. aureus, No RBC / MIC, S. aureus, 10^9 cells/ml RBC: Table 2; for MIC in Broth Dilution, S. Aureus, RBC +: presence of 1×10^9 human RBC/ml; for MIC, S. aureus, 10^9 cells/ml RBC: with 10^9 human RBC/ml
Protocol: as §1, §2, §3

K. pneumoniae = conditions: for MIC in Broth Dilution, K. Pneumoniae, RBC +: presence of 1×10^9 human RBC/ml; for MIC, K. pneumoniae, 10^9 cells/ml RBC: with 10^9 human RBC/ml
Protocol: as §1, §2, §3

human RBCs = assay: Hemolysis of human RBCs
Protocol: as §1
Peptide was serially diluted in PBS starting at a concentration of 100 μM. The final volume of peptide in each well was 50 μL. To each well, 50 μL of RBCs in PBS at 2×10^8 cells/mL was added. As a positive lysis control, 1% triton was used. The mixtures were incubated at 37° C. for 1 hour, after which they were centrifuged at 1000 g for 5 minutes. After centrifugation, 10 μL of supernatant was transferred to 90 μL of DI H2O in a fresh 96-well plate. The absorbance of released hemoglobin at 410 nm was recorded and the fractional hemolysis was calculated based on the 100% and 0% lysis controls.
as §3

[2] = 50% cytotoxicity by SYTOX Green, Table 2, read-out: EC50, μM (WI-38 Cells)
[3] = fractional hemolysis of 1×10^8 human RBC/ml at 100 μM peptide, Table 3
[4] = fractional hemolysis of human RBCs at 100 μM peptide, Table 2

Molecule	EC50 [1, 2]	EC50 ([1]; kills 50% of WI-38 cells, SYTOX Green entry, Table 3, read-out: EC50, μM (WI-38))	MIC in Broth Dilution, E. coli, RBC − (E. coli)	MIC, E. coli, No RBC (E. coli)	MIC in Broth Dilution, E. coli, RBC + (E. coli)	MIC, E. coli, 10^9 cells/ml RBC (E. coli)	MIC in Broth Dilution, S. Aureus, RBC − (S. aureus)	MIC, S. aureus, No RBC (S. aureus)	MIC in Broth Dilution, S. Aureus, RBC + (S. aureus)	MIC, S. aureus, 10^9 cells/ml RBC (S. aureus)	MIC in Broth Dilution, K. Pneumoniae, RBC − (K. pneumoniae; absence of RBC, Table 3)	MIC, K. pneumoniae, No RBC (K. pneumoniae; no RBC, Table 2)	MIC in Broth Dilution, K. Pneumoniae, RBC + (K. pneumoniae; Table 3)	MIC, K. pneumoniae, 10^9 cells/ml RBC (K. pneumoniae; Table 2)	Hemolysis at 100 μM (human RBCs; [3])	Hemolysis at 100 μM (human RBCs; [4])	Hemolysis at 100 μM (human RBCs)	Toxicity against WI-38 cells (in words) [1]
rrwa (nor r, nor r)lafafrr [D-CONGA-NorR]	66 µM	66 µM	1.9 µM	1.9 µM	2.4 µM	2.4 μM	7.6 µM	7.6 µM	17.2 µM	17.2 μM	13.3 µM	13 µM	11.8 µM	12 μM	–	–	–	–
CC(C)C[C@@H]1NC(=O)[C@H](CCCNC(=N)N)NC(=O)[C@H](CCCNC(=N)N)NC(=O)[C@H](C)NC(=O)[C@H](Cc2c[nH]c3ccccc23)NC(=O)[C@H](CCCNC(=N)N)NC(=O)[C@H](CCCNC(=N)N)NC(=O)[C@H](CCCNC(=N)N)NC(=O)[C@H](CCCNC(=N)N)NC(=O)[C@H](Cc2ccccc2)NC(=O)[C@H](C)NC(=O)[C@H](Cc2ccccc2)NC(=O)[C@H](C)NC1=O [CYCLIZED-L-CONGA-OH] (cyclo(RRWARRLAFAFRR))	–	–	5.9 µM (≈ 10.3 µg/mL)	5.9 µM (≈ 10.3 µg/mL)	13.3 µM	13.3 μM	20 µM (≈ 34.9 µg/mL)	20 µM (≈ 34.9 µg/mL)	–	–	–	–	6 µM	–	0.7	0.7	–	–
CC(C)C[C@@H](NC(=O)[C@@H](CCCNC(=N)N)NC(=O)[C@@H](CCCNC(=N)N)NC(=O)[C@@H](C)NC(=O)[C@@H](Cc1c[nH]c2ccccc12)NC(=O)[C@@H](CCCNC(=N)N)NC(=O)[C@H](N)CCCNC(=N)N)C(=O)N[C@H](C)C(=O)N[C@H](Cc1ccccc1)C(=O)N[C@H](C)C(=O)N[C@H](Cc1ccccc1)C(=O)N[C@H](CCCNC(=N)N)C(=O)N[C@H](CCCNC(=N)N)C(N)=O [D-CONGA, rrwarrlafafrr (All D), reference compound] (H-[dR][dR][dW][dA][dR][dR][dL][dA][dF][dA][dF][dR][dR]-NH2)	110 µM	–	–	1.0 µM (≈ 1.76 µg/mL)	–	0.8 μM	5.7 µM (≈ 10 µg/mL)	5.7 µM (≈ 10 µg/mL)	6.3 µM	6.3 μM	–	–	–	3.8 μM	–	–	0.06	–
CC(C)C[C@@H](NC(=O)CCNC(=O)[C@@H](CCCNC(=N)N)NC(=O)[C@@H](CCCNC(=N)N)NC(=O)[C@@H](C)NC(=O)[C@@H](Cc1c[nH]c2ccccc12)NC(=O)[C@@H](CCCNC(=N)N)NC(=O)[C@H](N)CCCNC(=N)N)C(=O)N[C@H](C)C(=O)N[C@H](Cc1ccccc1)C(=O)N[C@H](C)C(=O)N[C@H](Cc1ccccc1)C(=O)N[C@H](CCCNC(=N)N)C(=O)N[C@H](CCCNC(=N)N)C(N)=O [D-CONGA-βa7, rrwarr-βa-lafafrr (All D)] (H-[dR][dR][dW][dA][dR][dR][βAla][dL][dA][dF][dA][dF][dR][dR]-NH2)	–	–	–	–	–	–	–	–	–	–	–	–	–	–	–	–	0.02	least toxic of the variants
CC(C)C[C@H](NC(=O)[C@H](CCCNC(=N)N)NC(=O)[C@H](CCCNC(=N)N)NC(=O)[C@H](C)NC(=O)[C@H](Cc1c[nH]c2ccccc12)NC(=O)[C@H](CCCNC(=N)N)NC(=O)[C@H](N)CCCNC(=N)N)C(=O)N[C@@H](C)C(=O)N[C@@H](Cc1ccccc1)C(=O)N[C@@H](C)C(=O)N[C@@H](Cc1ccccc1)C(=O)N[C@@H](CCCNC(=N)N)C(=O)N[C@H](CCCNC(=N)N)C(N)=O [L-CONGA-D(R1, R13)] (H-[dR]RWARRLAFAFR[dR]-NH2)	–	–	20 µM (≈ 35.2 µg/mL)	20 µM (≈ 35.2 µg/mL)	26.2 µM	26.2 μM	>30 µM	30 µM (≈ 52.8 µg/mL)	>30 µM	30 μM	–	–	–	–	–	–	0.01	–
CC(C)C[C@@H]1NC(=O)[C@H](CCCNC(=N)N)NC(=O)[C@H](CCCNC(=N)N)NC(=O)[C@H](C)NC(=O)[C@H](Cc2c[nH]c3ccccc23)NC(=O)[C@H](CCCNC(=N)N)NC(=O)[C@H](CCCNC(=N)N)NC(=O)CC[C@@H](C(N)=O)NC(=O)[C@H](CCCNC(=N)N)NC(=O)[C@H](CCCNC(=N)N)NC(=O)[C@H](Cc2ccccc2)NC(=O)[C@H](C)NC(=O)[C@H](Cc2ccccc2)NC(=O)[C@H](C)NC1=O [CYCLIZED-L-CONGA-E] (RRWARRLAFAFRRE-NH2; lactam N-14)	–	–	22.9 µM (≈ 42.9 µg/mL)	24 µM (≈ 44.9 µg/mL)	>30 µM	30 μM	>30 µM	30 µM (≈ 56.2 µg/mL)	–	–	–	–	>30 µM	–	0.03	0.03	–	–
